US5886165A, “Mixed backbone antisense oligonucleotides containing 2'-5'-ribonucleotide- and 3'-5'-deoxyribonucleotides segments” (Hybridon, Inc., priority 1996, dated 1999)
[25] = 2'-5' internucleotide linkage (phosphodiester)

Columns and labels:
[1] = tested on: DNA target strand SEQ ID NO 10 (25 base sequence from the initiation codon region of the HIV-1 gag mRNA); experiment: Thermal melting study, duplex with DNA target strand; assay type: binding; conditions: for Tm DNA: duplex with DNA SEQ ID NO 10, 10 mM disodium hydrogen phosphate pH 7.5, 100 mM NaCl, 2.0 μM total strands
Method: (§1) Thermal denaturation studies were carried out by mixing MBOs with the DNA or RNA target strands in equimolar ratios in 10 mM disodium hydrogen phosphate, pH 7.5±0.1, 100 mM sodium chloride buffer, heated to 95° C. for 10 min, and allowed to come to room temperature slowly before being stored at 4° C. overnight. The final total concentration of the oligonucleotide strands was 2.0 μM. Spectrophotometric measurements were performed at 260 nm using 1 cm path length quartz cuvettes at a heating rate of 0.5° C./min on a Perkin-Elmer (Norwalk, Conn.) Lambda 2 Specotrometer attached to a thermal controller and a personal computer. Melting temperatures (Tm) taken as the temperature of half-dissociation and were obtained from first derivative plots. Precision in Tm values estimated from variance in two or three repeated experiments was ±0.5° C.

[2] = tested on: RNA target strand SEQ ID NO 9 (25 base sequence from the initiation codon region of the HIV-1 gag mRNA); experiment: Thermal melting study, duplex with RNA target strand; assay type: binding; conditions: for Tm RNA: duplex with RNA SEQ ID NO 9, 10 mM disodium hydrogen phosphate pH 7.5, 100 mM NaCl, 2.0 μM total strands
Method: as §1

[3] = tested on: citrated normal human donor plasma; experiment: Clotting assay, activated partial thromboplastin time (aPTT); conditions: compared to saline control; for 50% Prolongation of Clotting (aPTT): human plasma; for effect in coagulation assay (in words): up to 100 μg/ml dose
Method: The activated partial thromboplastin time (aPTT) was performed with citrated normal human donor plasma in duplicate on an Electra 1000C (Medical Laboratory Automation, Mount Vernon, N.Y.) according to recommended procedures using Actin FSL (Baxter Dade, Miami, Fla.) and 2.5 mM calcium to initiate clot formation, which was measured photometrically. Normal plasma aPTT values ranged from 27 to 39 sec. Data were calculated as 50% of prolongation as compared to the saline control.

[4] = Stability in DMEM cell culture medium containing 10% fetal calf serum; assay type: in vitro ADME; conditions: DMEM with 10% non-heat-inactivated fetal calf serum, 37° C.
Method: Oligonucleotides were labeled at the 5'-end with ^32 P using γ-^32 P-ATP (Amersham) and T4 polynucleotide kinase (Promega). Sambrook et al, Molecular Cloning, supra. Stability of the oligonucleotides in cell culture medium containing 10% fetal calf serum was tested by incubating a small amount of labeled oligonucleotide together with 100 ng of cold oligonucleotide in DMEM cell culture medium (Gibco/BRL, Grand Island, N.Y.) containing 10% non-heat-inactivated fetal calf serum (Gibco/BRL) at 37° C. in a final volume of 40 μl, and aliquots were removed at different times.

[5] = tested on: snake venom phosphodiesterase; experiment: Snake venom phosphodiesterase assay; assay type: in vitro ADME; conditions: 0.01 U, 21° C.; compared with SEQ ID NO 7
Method: (§2) For snake venom phosphodiesterase assay, labeled oligonucleotide with cold oligonucleotide in a buffer (10 mM Tris, pH 8.0, 100 mM sodium chloride, and 10 mM magnesium chloride) was incubated with 0.01 U of snake venom phosphodiesterase (Boehringer-Mannheim, Indianapolis, Ind.) at 21° C. (final volume 40 μl). Aliquots were removed at different time intervals for electrophoretic gel analysis. For S1 nuclease assay, reactions were carried out as above but in […] sodium acetate, pH 5.0, 10 mM zinc acetate buffer and with 1.4 U of S1 nuclease (Gibco/BRL) incubated at 37° C. in a final volume of 50 μl. Aliquots were removed at different time intervals for electrophoretic gel analysis. Nuclease reactions were stopped by adding 5 μl of formamide gel loading buffer to each sample and heating at 90° C. for 5 min. All the samples were then run by 20% PAGE (7M urea) and visualized by autoradiography.

S1 nuclease = molecular target: T1, S1 nuclease (Aspergillus oryzae, UniProt P24021); experiment: S1 nuclease assay; assay type: in vitro ADME; conditions: 1.4 U, 37° C., pH 5.0
T1 construct: purchased Gibco/BRL
T1 sequence (P24021 21-287): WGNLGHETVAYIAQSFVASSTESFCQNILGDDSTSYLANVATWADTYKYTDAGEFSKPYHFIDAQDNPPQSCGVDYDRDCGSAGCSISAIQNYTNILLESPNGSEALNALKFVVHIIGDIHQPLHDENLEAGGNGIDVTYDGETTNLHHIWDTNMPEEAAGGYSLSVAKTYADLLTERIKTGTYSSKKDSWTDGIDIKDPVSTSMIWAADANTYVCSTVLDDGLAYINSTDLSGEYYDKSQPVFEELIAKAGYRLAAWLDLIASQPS
Method: as §2

Spleen cells (CD1 mouse) = experiment: In vitro cell proliferation assay ([3H]thymidine); assay type: cell-based; conditions: at 10 μg/ml, 48 hrs
Method: Cell proliferation assays were carried out as described earlier (Zhao et al., Biochem. Pharmacol 51, 173-182 (1996)). Spleen cells (4-5 week old male CD1 mouse, 20-22 gm, Charles River, Wilmington, Mass.) suspensions were prepared and plated in 96-well dishes at a density of 10^6 cells/ml in a final volume of 100 μl. The cells were incubated at 37° C. after adding 10 μl of oligonucleotides. After 44 hrs incubation, 1 μCi [3H]thymidine (Amersham, Arlington Heights, Ill.) was added and the cells were pulse-labeled for another 4 hrs. The cells were harvested by an automatic cell harvester and the filters were counted by a scintillation counter. All experiments were carried out in triplicate.

Substance | ΔTm with the DNA strand ([1]; destabilizing effect, DNA strand) [°C] | Tm DNA [1] [°C] | ΔTm with the RNA strand ([2]; destabilizing effect, RNA strand) [°C] | Tm RNA [2] [°C] | 50% Prolongation of Clotting (aPTT) [3] [µg/mL] | effect in coagulation assay (in words) [3] | stability in serum (in words) [4] | stability against snake venom phosphodiesterase (in words) [5] | digestion by S1 nuclease (in words) (S1 nuclease) | Tm lower than duplex of control oligonucleotide SEQ ID NO 7, DNA target ([1]; vs SEQ ID NO 7, DNA SEQ ID NO 10) | Tm lower than duplex of control oligonucleotide SEQ ID NO 7, RNA target ([2]; vs SEQ ID NO 7, RNA SEQ ID NO 9) [°C] | Stimulation Index (Lymphocyte Proliferation) (Spleen cells (CD1 mouse))
SEQ ID NO 4: Phosphodiester MBO with three 2'-5' linkages at each end and an additional three in the middle (antisense CUCTCGCACCCAUCTCTCTCCUUCT; phosphodiester, three 2'-5' linkages at each end and three in middle, further chemistry not given here) | -10.7 | 52.8 | -6.0 | 64.5 | > 100.0 | negligible effect | intact up to four hours | slightly higher stability | quickly digested |  |  | 
SEQ ID NO 1: Phosphodiester MBO with three 2'-5'-linkages at each of the 5'- and 3'-ends, complementary to HIV-1 gag mRNA (antisense CUCTCGCACCCATCTCTCTCCUUCT; linkages [25]3 o18 [25]3 (s phosphorothioate, o phosphodiester), sugars by position and methylation of C not given here) |  | 60.6 |  | 67.8 | > 100.0 | negligible effect | intact up to four hours | slightly higher stability | quickly digested | about 2.9 °C | ~2.7 | 0.67 ± 0.11
